pEC50: −log10 of the molar value.

As a reminder, the pEC50 is the EC50 on a negative log10 scale, so that one unit is a factor of ten.

The test system of one assay is small TG neurons. As to the kind of experiment: TG neuronal excitability (action potential firing, rheobase, threshold). It counts as cell-based, mouse. How it is done: (§1) All the procedures performed in this study were carried out in accordance with NIH guidelines and were approved by the Institutional Animal Care and Use Committee of Soochow University. TG neurons were dissociated as previously described, [23]. Briefly, TGs were harvested from 8- to 10-week-old ICR mice of either sex, cut into small pieces and treated with 2 mg/mL collagenase D (Roche) for 20 min followed by 1.5 mg/mL trypsin (Sigma) at 37 °C for 15 min. Cells were dissociated via gentle trituration with fire-polished sterilized Pasteur pipettes and centrifuged through a 15% BSA gradient to remove debris and nonneuronal cells. TG neurons were resuspended in neurobasal A (Thermo Fisher) supplemented with B27 (Thermo Fisher) and transferred onto Matrigel-coated coverslips. Patch clamp recordings were conducted 2 to 6 h after plating. In shRNA-treated knockdown experiments, TG cells were replated onto coverslips 48 h after infection.
(§2) Standard whole-cell recordings were made at room temperature (22-23 °C) as described previously, [25]. Recording electrodes were pulled from borosilicate glass microcapillary tubes (Sutter Instruments) and had resistances from 3 to 5 MΩ when filled with internal solution. Recordings were obtained using a MultiClamp 700B amplifier (Axon Instruments). Data were digitized on a personal computer using a Digidata 1440 interface under the control of the pClamp10.2 acquisition package (Molecular Devices). Data were acquired at 20 kHz with a low-pass Bessel filter at 2-5 kHz. Series resistance was compensated to 80%. The internal solution used for T-type channel current recordings contained 110 mM CsCl, 4 mM Mg-ATP, 0.3 mM Na2-GTP, 25 mM HEPES, and 10 mM EGTA, adjusted to pH 7.4 with CsOH; 295 mOsm. The external solution used for T-type channel current recordings contained 5 mM BaCl2, 140 mM TEA-Cl, 10 mM HEPES, 0.5 mM MgCl2, 5 mM CsCl, and 5.5 mM glucose, adjusted to pH 7.35 with TEA-OH; 305 mOsm. In experiments for Kv current recordings, the extracellular solution contained 140 mM choline-Cl, 1 mM MgCl2, 0.03 mM CaCl2, 5 mM KCl, 10 mM HEPES, and 10 mM glucose, adjusted to pH 7.4 with KOH; 310 mOsm. The intracellular pipette solution contained 140 mM KCl, 1 mM MgCl2, 0.5 mM CaCl2, 3 mM Mg-ATP, 0.3 mM Na2-GTP, 10 mM HEPES, and 5 mM EGTA, adjusted to pH 7.4 with KOH; 295 mOsm. The two kinetically distinct Kv currents in small TG neurons were separated by the two-step voltage protocol as previously described, [26]. The external solution for Nav current clamp recordings contained 2 mM KCl, 2 mM MgCl2, 25 mM HEPES, 2 mM CaCl2, 128 mM NaCl, and 30 mM glucose, adjusted to pH 7.4 with NaOH; 305 mOsm. The internal solution contained 10 mM NaCl, 110 mM KCl, 4 mM Mg-ATP, 0.3 mM Na2-GTP, 25 mM HEPES, and 2 mM EGTA, adjusted to pH 7.3 with KOH; 295 mOsm. Nmb was applied to a patched cell by an air-pressure microinjector (Pneumatic PicoPump, model PV830, WPI).
We next determined the role of the Nmb-induced T-type channel response in regulating TG neuronal excitability. […] Furthermore, application of Nmb (100 nM) to TG neurons decreased the peak amplitude of the transient outward K^+ channel currents (A-type currents or IA) (decrease of 22.3 ± 3.9%; Figure 6C), while the sustained delayed rectifier K^+ channel currents (IDR) remained unaffected (decrease of 1.9 ± 1.6%; Figure 6C). […] To further test this hypothesis, a shorter (1 ms) current injection was applied to avoid contaminating the action potential waveform with the stimulus. Neurons were manually hyperpolarized to membrane potentials of -75 mV to maximize the number of T-type channels available for activation. With increasingly stronger current injections (+200 pA), the threshold current necessary to evoke an overshooting AP was determined for each neuron in the presence or absence of Nmb.

Another assay relates to Cav3.2 (α1H). Briefly: Cav3.2 channel currents in HEK293 cells coexpressing NmbR. It counts as cell-based, human. The method, then:
as §2, with “mOsm.” for “mOsm. The two kinetically distinct Kv currents in small TG neurons were separated by the two-step voltage protocol as previously described, [26]. The external solution for Nav current clamp recordings contained 2 mM KCl, 2 mM MgCl2, 25 mM HEPES, 2 mM CaCl2, 128 mM NaCl, and 30 mM glucose, adjusted to pH 7.4 with NaOH; 305 mOsm. The internal solution contained 10 mM NaCl, 110 mM KCl, 4 mM Mg-ATP, 0.3 mM Na2-GTP, 25 mM HEPES, and 2 mM EGTA, adjusted to pH 7.3 with KOH; 295 mOsm. Nmb was applied to a patched cell by an air-pressure microinjector (Pneumatic PicoPump, model PV830, WPI).”

The test system of assay [1] is T-type channels in small TG neurons. Briefly: Whole-cell patch clamp of T-type channel currents (IT) in small TG neurons. In kind it is cell-based, mouse. In general terms: Patch clamp records ionic current or voltage across a cell membrane.
The test system of the next assay is Cav3.3 (α1I). As to the kind of experiment: Cav3.3 channel currents in HEK293 cells coexpressing NmbR. The conditions noted are these: 100 nM Nmb; -110 mV to -30 mV; n = 7. In kind it is cell-based, human.
The test system of assay [2] is phosphorylated AMPK (p-AMPK). Briefly: Western blot of phosphorylated AMPK in TG cells. It counts as cell-based, mouse. The conditions noted are these: Nmb exposure (100 nM) in TG cells.
Another assay deals with Cav3.1 (α1G). Briefly: Cav3.1 channel currents in HEK293 cells coexpressing NmbR. The conditions noted are these: 100 nM Nmb; -110 mV to -30 mV; n = 10. It counts as cell-based, human.
Assay [3] deals with voltage-gated Na^+ channels (Nav). As to the kind of experiment: Whole-cell voltage-gated Na+ channel currents in TG neurons. It counts as cell-based, mouse. The conditions noted are these: 100 nM. The method, then:
as §1
Standard whole-cell recordings were made at room temperature (22-23 °C) as described previously, [25]. Recording electrodes were pulled from borosilicate glass microcapillary tubes (Sutter Instruments) and had resistances from 3 to 5 MΩ when filled with internal solution. Recordings were obtained using a MultiClamp 700B amplifier (Axon Instruments). […]

`CCCCCCOC(=O)[C@]1(O)C[C@@H]2O[C@@]1(C)n1c3ccccc3c3c4c(c5c6ccccc6n2c5c31)C(=O)NC4` [KT-5720]: the “effect on Nmb-mediated increase in AP firing rate / hyperexcitability” value in the assay on small TG neurons (pretreatment KT-5720 1 µM (n = 12) or NiCl2 50 μM (n = 11), 100 nM Nmb) is given as “blocked”. In the assay with Cav3.2 (α1H) (pretreatment 1 µM KT-5720, 100 nM Nmb, n = 9), the “Nmb-induced increase of Cav3.2 currents after KT-5720” value is given as 1.9 ± 4.2%. The “effect on forskolin-induced IT increase” value in assay [1] (1 µM KT-5720 pretreatment, 10 μM forskolin, n = 6) is given as “abrogated”. Moreover, in assay [1] (pretreatment 1 µM KT-5720, 100 nM Nmb, n = 7), the “Nmb-induced increase in IT after KT-5720” value worked out at 2.8 ± 2.9%.

As to Neuromedin B [Nmb], in the assay with small TG neurons (100 nM (control +0.98 nA)), the “threshold current with Nmb” value is given as “+0.79 nA”. For the same compound, the “increase of action potential firing rate” value with small TG neurons (100 nM, 5 mM 4-AP and 5 μM nifedipine, 1-s current injection, n = 17) is on record as 43.7 ± 3.7%. Also, the “cells in which the threshold was significantly lowered” value with small TG neurons (100 nM, 1 ms current injection, -75 mV) was 15 of 19. In the assay on small TG neurons (100 nM, n = 17), the resting membrane potential entry is “not significantly changed” and the “rheobase (vs nontreated)” value is “significantly lower”. The “increase of Cav3.3 channel currents” value with Cav3.3 (α1I) came out at 2.9 ± 1.6%. The “level of phosphorylated AMPK” value in assay [2] is “markedly increased”. The “increase of Cav3.2 channel currents” value in the assay on Cav3.2 (α1H) (100 nM Nmb, -110 mV to -30 mV, n = 9) is reported as 36.2 ± 3.1%. In the assay with Cav3.2 (α1H) (sigmoidal dose-response fit, read-out: EC50 for increase of Cav3.2 channel currents), the negative-log EC50 (pEC50) was 7.32. For the same compound, the “increase of Cav3.1 channel currents” value in the assay with Cav3.1 (α1G) stood at 0.7 ± 1.2%. For the same compound, the “reversal of IT increase when Nmb removed by washing” value in assay [1] (100 nM, washout) was “partially reversed”. Also, the “increase of peak amplitude of IT by Nmb” value in assay [1] (100 nM, mean ± SEM, n = 9) is given as 34.2 ± 1.9%. The “current-voltage relationship curve of IT” value in assay [1] (100 nM, n = 8) is listed as “downward shifted the current-voltage relationship curve”. In assay [1] (100 nM, n = 9), the “depolarizing shift in steady-state inactivation” value is ~ 7.3 mV and the “shift in activation properties” value was “no significant shifts in activation properties”. The pEC50 in assay [1] (sigmoidal Hill equation fit, small TG neurons, read-out: EC50 for IT increase) was 7.34. Besides, the Vhalf of activation in assay [1] (with 100 nM Nmb (control -47.1 ± 1.9 mV), n = 9) was -46.3 ± 2.2 mV. The “Vhalf of steady-state inactivation” value in assay [1] (with 100 nM Nmb (control -80.1 ± 2.5 mV), n = 9) is -72.8 ± 1.3 mV. The “effect on whole-cell Nav currents” value in assay [3] is recorded as “did not affect”.

Source of the values: publication PMC8490515, “Neuromedin B receptor stimulation of Cav3.2 T-type Ca^2+ channels in primary sensory neurons mediates peripheral pain hypersensitivity” (Theranostics, 2021).
